Source: US20080293700A1, “Compositions and Methods Relating to Novel Compounds and Targets Thereof” (priority 2004, published 2008)
Read-outs that look alike come from different tables or passages of the source.

Legend:
[1] = tested on: F1Fo-ATPase; settings: cited from earlier work
[2] = target: T1, ATP hydrolytic activity of sub-mitochondrial particles (SMPs), mitochondrial F1Fo-ATPase (Bos taurus, UniProt P13621); assay: NADH-coupled kinetics assay of ATP hydrolysis by sub-mitochondrial particles; format: biochemical, bovine; settings: for Ki: non-competitive (mixed) model; for Km / Vmax: three-dimensional fit
T1 construct: from tissue; host or cells: sub-mitochondrial particles (SMPs)
Procedure: The mechanism of inhibition for ATP hydrolysis induced by Bz-423 and derivatives of Bz-423 was assayed using an NADH-coupled assay. The ATP hydrolytic activity of the sub-mitochondrial particles (hereinafter SMPs) was measured by coupling the production of ADP to the oxidation of NADH via the pyruvate kinase and lactate dehydrogenase reaction. Briefly, ATP hydrolysis SMPs (0.8 mg; 7.14 μg/well) were added to hydrolysis buffer (100 mM Tris-HCl, pH 8.0 at 25° C., 4 mM MgCl2, […], 0.2 mM EDTA) and vortexed. 125 μL of this suspension was added to each well of a 96-well plate containing 50× drug or DMSO vehicle control (1% DMSO, final). The 96-well plate was then placed at 30° C. in a Molecular Devices Versamax tunable microplate reader and allowed to incubate for 5 min. During this 5 min, a substrate-coupling mixture was prepared (containing X mM ATP, 0.2 mM NADH, 1 mM phosphoenolpyruvate (PEP), 2 U/mL pyruvate kinase (PK), and 2 U/mL lactate dehydrogenase (LDH) in hydrolysis buffer). The rate of hydrolysis was assayed over a range of ATP concentrations (0.1-4.0 mM) at each [Bz]. 125 μL of the substrate-coupling mixture was added to each well, and the rate of NADH oxidation was monitored for 10 min at 340 nm, 30° C. The measured decrease in absorbance over time (in OD/min) was converted to μmol ATP hydrolyzed/min/mg SMP (ε=6220). The velocity data was plotted versus [ATP] for each concentration of [Bz] (e.g., 1-8 μM) (see, e.g., FIG. 1) and then fit to the Michaelis-Menten equation:
m1*m0/(1+m0/m2) • where m1=Vmax/Km and m2=Km The apparent kinetic parameters for each [Bz] were obtained from these curve fits to generate secondary plots of [Bz] versus Vmax, [Bz] versus Km, and [Bz] versus Vmax/Km (see, e.g., FIG. 2). The o-tert-Butyl derivative, shown below,
To obtain Ki values and confirm that an uncompetitive model of inhibition was the best fit for the data, three-dimensional fits of the velocity, [ATP], and [Bz] were performed to solve for Vmax, Km, Ki, and Ki* [where Ki indicates Bz binding to the ATPase with the third catalytic site empty (mixed-type inhibition only), and Ki* indicates binding when all three sites have substrate bound (uncompetitive and mixed-type inhibition)]. The following equations were used:
Vo=Vmax[S]/((1+[I]/Ki)Km+[S])
Vo=Vmax[S]/((1+[I]/Ki*) [S]+Km)
Vo=Vmax[S]/((1+[I]/Ki)Km+(1+[I]Ki*)[S])

[3] = binding with third catalytic site empty
[4] = non-competitive (mixed) inhibition model

Row | SMILES | mode of inhibition of the F1Fo-ATPase [1] | IC50 [1] [µM] | mechanism of inhibition of ATP hydrolysis [2] | Ki [2, 3] | effect on apparent Km ([2]; secondary plot [Bz] versus Km, [Bz] 1-8 μM) | effect on apparent Vmax ([2]; secondary plot [Bz] versus Vmax, [Bz] 1-8 μM) | Km ([2]; competitive inhibition model) [µM] | Vmax ([2]; competitive inhibition model) | Vmax [2, 4] | Km ([2]; uncompetitive inhibition model) [µM] | Vmax ([2]; uncompetitive inhibition model) | Ki ([2]; binding when all three sites have substrate bound, read-out: Ki*) [µM]
1 | COC[C@@H](C[C@H]1O[C@@](O)([C@H](O)[C@@H]2C[C@H](OC)[C@@H](O)CC/C=C(C)/C=C/[C@@H](O[C@@H]3O[C@@H](C)[C@H](OC)[C@@H](O)[C@@H]3O)[C@H](C)/C=C(C)/C=C(C)/C=C(\C)C(=O)O2)[C@H](C)[C@@H](O)[C@H]1C)OC1C[C@](C)(O)[C@@H](O[C@H]2C[C@@H](OC)[C@H](O)[C@@H](C)O2)[C@H](C)O1 (some centres unmarked) [apoptolidin] | non-competitive |  |  |  |  |  |  |  |  |  |  | 
2 | CC[C@H]1/C=C/C=C/C[C@@H](C)[C@H](O)[C@@](C)(O)C(=O)[C@@H](C)[C@H](O)[C@@H](C)C(=O)[C@@H](C)[C@H](O)[C@@H](C)/C=C/C(=O)O[C@@H]2[C@H](C)[C@H](CC1)O[C@]1(CC[C@H](C)[C@H](C[C@@H](C)O)O1)[C@H]2C [oligomycin] | non-competitive | 0.01 |  |  |  |  |  |  |  |  |  | 
3 | CN1C(=O)C(Cc2ccc(OC(C)(C)C)cc2)N=C(c2ccc(O)cc2)c2cc(Cl)ccc21 (centres unmarked) [o-tert-Butyl] |  |  | uncompetitive | no fit | decreased | decreased | 250 ± 20 | 1.25 ± .01 | 1.53 ± .03 | 390 ± 300 | 1.53 ± 0.03 | 
4 | CN1C(=O)C(Cc2ccc3ccccc3c2)N=C(c2ccc(O)cc2)c2cc(Cl)ccc21 (centres unmarked) [Bz-423] |  |  | uncompetitive | no fit |  |  | 400 ± 100 | 2.62 ± 0.9 | 3.37 ± 1.4 | 680 ± 100 | 3.34 ± 1.3 | 18.9 ± 6.3
